A short description of data set [1]: Selectivity index, ratio of IC50 for human WI38 cells to IC50 for chloroquine-sensitive asexual erythrocyte stage form Plasmodium falciparum NF54. In kind it is toxicity, cell-based, WI-38. The conditions noted are these: read-out: Ratio IC50.
Data set [2] is described as follows: Resistance index, ratio of IC50 for chloroquine-resistant asexual erythrocyte stage form Plasmodium falciparum Dd2 to IC50 for chloroquine-sensitive asexual erythrocyte stage form Plasmodium falciparum NF54. In kind it is functional.
The nature of data set [3]: Cytotoxicity against CHO cells assessed as reduction in cell viability measured after 48 hrs by MTT assay. The data set is classed as toxicity, cell-based, Cricetulus griseus. The conditions noted are these: Chinese hamster. On the technique in general: Tetrazolium dyes change colour on reduction, which living cells bring about.
A short description of data set [4]: Cytotoxicity against human WI38 cells assessed as reduction in cell viability measured after 48 hrs by SRB assay. The data set is classed as toxicity, cell-based, WI-38. In general terms: The SRB assay estimates cell density from bound dye.
In a further data set the test system is WI-38. Description: Selectivity index, ratio of IC50 for human WI38 cells to IC50 for human TK10 cells. The data set is classed as functional.
Data set [5] has as its system Plasmodium falciparum. Description: Antiplasmodial activity against chloroquine-sensitive asexual erythrocyte stage form Plasmodium falciparum NF54 measured after 48 hrs by pLDH assay. The data set is classed as functional. The following applies: NF54, 48 h.
Data set [6] relates to Plasmodium falciparum. The data set can be described thus: Antiplasmodial activity against chloroquine-resistant asexual erythrocyte stage form Plasmodium falciparum Dd2 measured after 48 hrs by pLDH assay. The data set is classed as functional. The following applies: Dd2, 48 h.
Data set [7] is described as follows: Selectivity index, ratio of IC50 for human UACC62 cells to IC50 for chloroquine-resistant asexual erythrocyte stage form Plasmodium falciparum Dd2. The data set is classed as functional, UACC-62.
The test system of data set [8] is CHO. Description: Selectivity index, ratio of IC50 for CHO cells to IC50 for human UACC62 cells. In kind it is functional.
The nature of data set [9]: Growth inhibition of human UACC62 cells measured after 24 hrs by SRB assay. The following applies: UACC-62, 24 h. The data set is classed as functional, cell-based.
A short description of data set [10]: Thermal stability of the compound assessed as melting point by thermogravimetric analysis. The data set is classed as physicochemical.
Data set [11] is described as follows: Selectivity index, ratio of IC50 for CHO cells to IC50 for chloroquine-sensitive asexual erythrocyte stage form Plasmodium falciparum NF54. The data set is classed as toxicity, cell-based. The following applies: hamster, read-out: Ratio IC50.
Data set [12] relates to CHO. The data set can be described thus: Selectivity index, ratio of IC50 for CHO cells to IC50 for human TK10 cells. The data set is classed as functional.
Data set [13] relates to CHO. Description: Selectivity index, ratio of IC50 for CHO cells to IC50 for human MCF7 cells. In kind it is functional.
Data set [14] can be described thus: Growth inhibition of human MCF7 cells measured after 24 hrs by SRB assay. In kind it is functional, cell-based. The conditions noted are these: MCF7, 24 h.
Data set [15] can be described thus: Selectivity index, ratio of IC50 for human MCF7 cells to IC50 for chloroquine-resistant asexual erythrocyte stage form Plasmodium falciparum Dd2. The data set is classed as functional.
A further data set deals with MCF7. The data set can be described thus: Selectivity index, ratio of IC50 for human WI38 cells to IC50 for human MCF7 cells. The data set is classed as functional.
Data set [16] can be described thus: Selectivity index, ratio of IC50 for human TK10 cells to IC50 for chloroquine-resistant asexual erythrocyte stage form Plasmodium falciparum Dd2. The data set is classed as functional, TK-10.
Data set [17] is described as follows: Growth inhibition of human TK10 cells measured after 24 hrs by SRB assay. The data set is classed as functional, cell-based. The following applies: TK-10, 24 h.
The subject of the next data set is UACC-62. The data set can be described thus: Selectivity index, ratio of IC50 for human WI38 cells to IC50 for human UACC62 cells. The data set is classed as functional.
The nature of data set [18]: Thermal stability of the compound assessed as transition temperature by differential scanning calorimetry. The data set is classed as physicochemical. (In DSC, transitions show as peaks or steps in heat flow.)
Data set [19] is described as follows: Thermal stability of the compound assessed as onset of decomposition temperature by thermogravimetric analysis. In kind it is physicochemical.
Data set [20] in a line: Safety index, ratio of compound IC50 to emetine IC50 for CHO cells. The data set is classed as ADME, cell-based, Cricetulus griseus. The following applies: Chinese hamster, read-out: Ratio IC50.
A short description of data set [21]: Safety index, ratio of compound IC50 to emetine IC50 for human WI38 cells. In kind it is ADME, cell-based, WI-38. The following applies: read-out: Ratio IC50.
A short description of data set [22]: Thermal stability of the compound assessed as endotherm temperature by differential scanning calorimetry. The data set is classed as physicochemical.

The values below come from ChEMBL document CHEMBL3865826, “Synthesis and biological evaluation of a series of non-hemiacetal ester derivatives of artemisinin” (Eur J Med Chem, 2016).

Turning to `C[C@@H]1CC[C@H]2C(C)(COC(=O)c3ccc(F)cc3)O[C@@H]3O[C@]4(C)CC[C@@H]1[C@]32OO4` (stereo partly specified), the selectivity ratio in data set [1] was above 27000; in data set [11] it was 27000. Further, the “Ratio IC50” value in [2] was 1.2; in the data set with WI-38, above 2; in [7], 1846; in the data set with CHO [8] it was above 8; with CHO [12], above 2; in the data set with CHO [13], above 40. Besides, the “Ratio IC50” value in [15] was 385; in the data set on MCF7, above 40; in [16], 6415; with UACC-62 it was above 8. Further, the half-maximal inhibitory concentration (IC50) at 48 h in data set [3] and in [4] was above 100 µM each time. Further, the IC50 – broadly, the concentration that gives 50% inhibition – came out at 0.0037 µM with Plasmodium falciparum [5]; 0.0044 µM in the data set with Plasmodium falciparum [6]; 12 µM in data set [9]; 2.5 µM in data set [14]; 41.7 µM in data set [17]. Also, the Tm in data set [10] was 171.9 °C.
For the compound `C[C@@H]1CC[C@H]2C(C)(COC(=O)c3ccc([N+](=O)[O-])cc3)O[C@@H]3O[C@]4(C)CC[C@@H]1[C@]32OO4` (stereo partly specified), the selectivity ratio in data set [1] and in [11] was above 14900 each time. Moreover, the “Ratio IC50” value in [2] is 0.4; in the data set on WI-38, above 2; in data set [7], 17077; in the data set on CHO [12], above 2; in the data set with CHO [13] it was above 2; in the data set with MCF7, above 2. Further, the “Ratio IC50” value in [16] came out at 21539. Further, the IC50 at 48 h in [3] and in data set [4] was above 100 µM in each case. The IC50 in the data set on Plasmodium falciparum [5] was 0.0067 µM; in the data set with Plasmodium falciparum [6] it was 0.0026 µM; in data set [9], above 100 µM; in [14], 44.4 µM; in [17], 56 µM. Moreover, the T in [18] was 110 °C; in data set [19] it was 220 °C. Besides, in data set [10], the Tm was 172.4 °C.
In the case of `C[C@@H]1CC[C@H]2C(C)(COC(=O)c3ccc(-c4ccccc4)cc3)O[C@@H]3O[C@]4(C)CC[C@@H]1[C@]32OO4` (stereo partly specified), the selectivity ratio in data set [1] and in data set [11] was above 13700 throughout. Further, the “Ratio IC50” value in data set [2] is on record as 0.9; with WI-38 it was above 2; in data set [7], 1846; in the data set on CHO [8] it was above 8; with CHO [12], above 2; in the data set with CHO [13], above 40. The “Ratio IC50” value is listed as 385 in data set [15], above 40 in the data set on MCF7, 6415 in [16] and above 8 in the data set on UACC-62. Also, the half-maximal inhibitory concentration (IC50) at 48 h in [3] and in [4] was above 100 µM throughout. For the same compound, the IC50 in the data set with Plasmodium falciparum [5] turned out to be 0.0073 µM; in the data set with Plasmodium falciparum [6] it was 0.0065 µM; in [9] it was 12 µM; in data set [14], 2.51 µM; in data set [17], 41.7 µM. The Tm in data set [10] was found to be 173.8 °C.
For the compound `C[C@@H]1CC[C@H]2C(C)(COC(=O)[C@@H]3CCCN3C(=O)C(F)(F)F)O[C@@H]3O[C@]4(C)CC[C@@H]1[C@]32OO4` (stereo partly specified), the selectivity ratio in data set [1] is 4000; in data set [20], at most 600; in data set [11], 12300; in [21], at most 600. Besides, the “Ratio IC50” value is given as 1 in data set [2]; 2 in the data set with WI-38; 385 in data set [7]; 32.4 in the data set with CHO [8]; 7.5 with CHO [12]; 33.5 in the data set with CHO [13]. In addition, the “Ratio IC50” value in data set [15] is 372; in the data set on MCF7, 11; in data set [16], 1667; in the data set on UACC-62 it was 11. Besides, the IC50 at 48 h in data set [3] is 97.1 µM; in data set [4], 31.6 µM. In addition, the IC50 stood at 0.0079 µM with Plasmodium falciparum [5]; 0.0078 µM in the data set on Plasmodium falciparum [6]; 3 µM in [9]; 2.9 µM in data set [14]; 13 µM in data set [17]. Moreover, the T was 116 °C in data set [18] and 126 °C in data set [19]. Besides, the Tm in data set [10] was 172.2 °C.
With `CC(=O)OCC1(C)O[C@@H]2O[C@]3(C)CC[C@H]4[C@H](C)CC[C@@H]1[C@@]24OO3` (stereo partly specified), the selectivity ratio in data set [1] and in [11] was above 8920 throughout. Besides, the “Ratio IC50” value in [2] was determined as 1.1. Moreover, the IC50 at 48 h in [3] and in data set [4] was above 100 µM throughout. Besides, the IC50 was 0.0112 µM in the data set with Plasmodium falciparum [5]; 0.0126 µM in the data set with Plasmodium falciparum [6]; above 100 µM in data set [9]; above 100 µM in data set [14]; above 100 µM in data set [17]. Also, the T in [19] stood at 164 °C; in data set [22] it was 90 °C. Further, the Tm in [10] is 171.2 °C.
